Results as given in paper PMC8156206, “Novel N,N′-Disubstituted Selenoureas as Potential Antioxidant and Cytotoxic Agents” (Antioxidants, 2021).

Columns and labels:
M14 (melanoma) = test: cells; assay type: cell-based
Description: (§1) The dose–response was also studied in the same 60 cancer cell lines, with outstanding results. […] Table 2 summarizes the GI50, TGI, and LC50 values of representative cell lines. Full data mean GI50 graphs are provided in the Supplementary Materials.

COLO-205 (colon cancer) = test: cells; assay type: cell-based
Description: as §1

NCI-60 cell line panel = test: cells; assay type: cell-based
Description: as §1

[1] = system: OVACAR-3 (ovarian cancer); test: cells; assay type: cell-based
Description: as §1

[2] = system: MDA-MB-231/ATCC (breast cancer); test: cells; assay type: cell-based
Description: as §1

SF-593 (CNS cancer) = test: cells; assay type: cell-based
Description: as §1

HCT-116 (colon cancer) = test: cells; assay type: cell-based
Description: as §1

BT-549 (breast cancer) = test: cells; assay type: cell-based
Description: as §1

[3] = system: MDA-MB-468 (breast cancer); test: cells; assay type: cell-based
Description: as §1

[4] = system: MCF-7 cells (breast adenocarcinoma); test: MTT cell viability assay, MCF-7; assay type: cell-based, human
How it was run: (§2)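 Cells at 1 × 10^4/well grown 24 h, then treated 48 h with selenourea at 10 and 50 µM (selected compounds 0.1–100 µM), DMSO as negative control. MTT added 150 min before end, formazan read at 570 nm; IC50 by nonlinear fit, ≥3 independent experiments in triplicate.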

HT-29 cells = test: Cell cycle progression, propidium iodide flow cytometry; assay type: cell-based, human; conditions: HT-29, 48 h, 0.1, 1, 5 and 10 µM
Experimental: 6 × 10^5 cells/well were grown in 6-well plates for 24 h. Cultures were treated with the corresponding amount of the selected compounds, DMSO (control), or 10 μM camptothecin (positive control). Propidium iodide (PI) was used as DNA stain dye to determine cell cycle distribution. Cells were stored at −20 °C with 70% ethanol for at least 24 h. Then, ethanol was removed, cells were washed with PBS, and stained for 30 min with 500 µL of a solution containing 0.001% triton, 0.2% w/v RNase, and 0.02% PI.
To gain further knowledge about the mechanism of action of 6c, we investigated the effect of this compound on cell cycle progression using flow cytometry analysis, with propidium iodide as a DNA staining agent. We analyzed the effect at 48 h treatment with four different concentrations (0.1, 1, 5, and 10 µM) of compound 6c on HT-29 cells. Camptothecin (10 μM) was used as a positive control. […] The cell cycle modulation of 6c is very similar to camptothecin, the reference compound used in the study.

[5] = system: HTB-54 cells (lung adenocarcinoma); test: MTT cell viability assay, HTB-54; assay type: cell-based, human
How it was run: as §2

HCT-116 cells (colon) = test: MTT cell viability assay, HCT-116; assay type: cell-based; conditions: Homo sapiens, HCT-116; 48 h, MTT, mean ± SD; read-out: IC50 HCT-116 (colon)

COc1ccc(NC(=[Se])NC23CC4CC(CC(C4)C2)C3)cc1 [Compound 6c, N´-adamantyl-N-(4-methoxyphenyl)selenourea]
CC50 (M14 (melanoma); Homo sapiens, M14, read-out: LC50): 7.94 µM
GI50 (M14 (melanoma); Homo sapiens, M14, NCI-60): 1.38 µM
TGI (M14 (melanoma); M14, NCI-60): 3.31 µM
TGI (COLO-205 (colon cancer); COLO-205, NCI-60): 3.98 µM
CC50 (COLO-205 (colon cancer); Homo sapiens, COLO 205, read-out: LC50): 9.33 µM
GI50 (COLO-205 (colon cancer); Homo sapiens, COLO-205, NCI-60): 1.66 µM
GI50 (NCI-60 cell line panel; average for the 60 cell lines): 1.49 µM
average TGI (NCI-60 cell line panel; average for the 60 cell lines): 9.17 µM
LC50 (NCI-60 cell line panel; read-out: LC50 values against 10 of the NCI60 cancer cell lines): 4.27 to 9.33 µM
CC50 ([1]; OVACAR3, read-out: LC50): 7.41 µM
GI50 ([1]; OVACAR3, OVACAR-3, NCI-60): 1.38 µM
TGI ([1]; OVACAR-3, NCI-60): 3.24 µM
CC50 ([2]; Homo sapiens, MDA-MB-231, read-out: LC50): 8.51 µM
GI50 ([2]; Homo sapiens, MDA-MB-231/ATCC, NCI-60): 1.78 µM
TGI ([2]; MDA-MB-231/ATCC, NCI-60): 3.89 µM
GI50 (SF-593 (CNS cancer); SF-593, NCI-60): 1.91 µM
TGI (SF-593 (CNS cancer); SF-593, NCI-60): 4.17 µM
CC50 (SF-593 (CNS cancer); read-out: LC50): 9.33 µM
TGI (HCT-116 (colon cancer); HCT-116, NCI-60): 2.75 µM
CC50 (HCT-116 (colon cancer); Homo sapiens, HCT-116, read-out: LC50): 6.03 µM
GI50 (HCT-116 (colon cancer); Homo sapiens, HCT-116, NCI-60): 1.29 µM
TGI (BT-549 (breast cancer); BT-549, NCI-60): 2.29 µM
CC50 (BT-549 (breast cancer); Homo sapiens, BT-549, read-out: LC50): 5.62 µM
GI50 (BT-549 (breast cancer); Homo sapiens, BT-549, NCI-60): 0.87 µM
CC50 ([3]; Homo sapiens, MDA-MB-468, read-out: LC50): 8.71 µM
GI50 ([3]; Homo sapiens, MDA-MB-468, NCI-60): 1.35 µM
TGI ([3]; MDA-MB-468, NCI-60): 3.39 µM
IC50 ([4]; Homo sapiens, MCF7, 48 h, MTT, mean ± SD, read-out: IC50 MCF-7 (breast)): 4.94 ± 1.99 µM
viability at 10 µM ([4]; Homo sapiens, MCF7, MCF-7, 10 µM, 48 h, MTT, read-out: cell viability, percentage of live cells): 37.9%
viability at 50 µM ([4]; Homo sapiens, MCF7, MCF-7, 50 µM, 48 h, MTT, read-out: cell viability, percentage of live cells): 9.2%
SI (selectivity index) breast ([4]; IC50 (184B5)/IC50 (MCF-7)): 1.46
cell cycle modulation (HT-29 cells): cell cycle arrest at the S phase in a concentration-dependent manner
IC50 ([5]; Homo sapiens, HTB-54, 48 h, MTT, mean ± SD, read-out: IC50 HTB-54 (lung)): 5.09 ± 0.28 µM
viability at 10 µM ([5]; Homo sapiens, HTB-54, 10 µM, 48 h, MTT, read-out: cell viability, percentage of live cells): 33.1%
viability at 50 µM ([5]; Homo sapiens, HTB-54, 50 µM, 48 h, MTT, read-out: cell viability, percentage of live cells): 30.9%
SI (selectivity index) lung ([5]; IC50 (BEAS-2B)/IC50 (HTB-54)): 0.93
IC50 (HCT-116 cells (colon)): 3.6 ± 0.74 µM
